According to patent US7863415B2 (The Regents of the University of California, priority 2004, dated 2011):
Entries after “also recorded” stand apart in the source; their conditions may differ. Where two headings read alike, the source gives them in different places.

How the values were obtained:
[1] = system: U87 glioma cells; assay: Glioma cell proliferation, manual cell counts with trypan blue; assay type: cell-based, human; settings: glioma cells
Method: C(5)-amiloride glycine conjugate (C5am-Gly) inhibits NHE1 in U87 glioma cells and is antiproliferative. […] The inhibitory activity of C5am-Gly against NCX was tested and a systematic log dose screen of C5am-Gly against a panel of glioma cells and primary astrocytes was performed.
Manual cell counts with dye exclusion assays. Identical concentrations of glioma cells can be plated on 60 mm dishes and grown until 50% confluent. Following drug treatments, media containing floating cells can be collected in suspension. Adherent cells can be rinsed in calcium- and magnesium-free phosphate-buffered saline (PBS-CMF) and removed by incubation with 0.25% v/v trypsin for 5 minutes (37° C.). Cell suspensions can be combined with the floating fraction and centrifuged at 350×g for 5 minutes. The resulting pellet (one per dish) can be resuspended in equal volumes of PBS-CMF with 0.4% trypan blue and/or 500 nM Sytox Green. 10 μL aliquots of the suspension can be plated on a hemocytometer, and cells can be counted 5 minutes after staining. Simultaneous staining of cells with trypan (TB) and Sytox Green (SG) can be visualized by switching between visible light and fluorescein green.

[2] = target: T1, NHE1 (Homo sapiens, UniProt P19634); assay: NHE1 inhibition: sodium-dependent pHi recovery in BCECF-loaded U87 glial cells after ammonium chloride pre-pulse; assay type: cell-based; design: Sodium-dependent proton extrusion in U87 glial cells and in primary astrocytes is mediated by the type 1 sodium proton exchanger (NHE1); endogenous in cells; host or cells: U87 human glioma cells
T1 sequence (P19634 whole entry): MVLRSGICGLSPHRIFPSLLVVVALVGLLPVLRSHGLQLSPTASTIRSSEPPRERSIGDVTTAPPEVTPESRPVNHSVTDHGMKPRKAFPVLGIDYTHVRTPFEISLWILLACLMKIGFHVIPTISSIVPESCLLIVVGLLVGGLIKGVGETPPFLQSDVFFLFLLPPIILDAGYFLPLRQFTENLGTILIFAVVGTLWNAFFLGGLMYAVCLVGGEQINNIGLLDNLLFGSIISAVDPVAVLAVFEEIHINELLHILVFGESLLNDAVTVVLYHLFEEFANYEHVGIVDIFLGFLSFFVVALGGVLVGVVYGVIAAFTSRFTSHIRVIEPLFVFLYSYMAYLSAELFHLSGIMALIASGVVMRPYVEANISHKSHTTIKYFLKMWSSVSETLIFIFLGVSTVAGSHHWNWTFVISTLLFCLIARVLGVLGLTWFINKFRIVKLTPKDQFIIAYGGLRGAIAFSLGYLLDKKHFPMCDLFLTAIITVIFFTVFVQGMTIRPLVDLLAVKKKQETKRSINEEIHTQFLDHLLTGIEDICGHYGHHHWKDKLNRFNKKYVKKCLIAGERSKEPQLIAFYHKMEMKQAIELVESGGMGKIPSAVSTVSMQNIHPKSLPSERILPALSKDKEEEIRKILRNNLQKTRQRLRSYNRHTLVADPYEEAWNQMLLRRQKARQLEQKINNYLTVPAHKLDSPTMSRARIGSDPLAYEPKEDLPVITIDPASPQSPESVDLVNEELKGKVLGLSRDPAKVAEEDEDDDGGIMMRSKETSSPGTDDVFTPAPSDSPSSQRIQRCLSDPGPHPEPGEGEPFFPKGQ
Method: Intracellular pH Measurements. U87 glial cells were grown on glass coverslips and incubated for 30 minutes at 37° C. with the pH-sensitive dye, 2′,7′-bis(2-carboxyethyl)-5(6)-carboxyfluorescein-AM (BCECF-AM; Molecular Probes, OR). Cells were rinsed with HEPES Ringer buffer twice and maintained at 37° C. for an additional 15 minutes to permit intracellular hydrolysis of the AM ester; trapping BCECF within the cells. Cells on coverslips were placed in a Hitachi F2000 fluorescent spectrophotometer and excited at 440 and 507 nm with fluorescent emissions recorded at 535 nm (Hegde et al., J. Pharmacol. Exp. Ther., 310:67-74 (2004)).
NHE inhibition by compounds 3a and 3c was evaluated using intracellular pH (pHi) measurements in the U87 human glial cell line (Hegde et al., supra). Cells loaded with BCECF were then acidified using the ammonium chloride pre-pulse method (Roos et al., Physiol Rev, 61:296-434 (1981)). The subsequent sodium-dependent recovery of pHi by these cells in the absence of bicarbonate was monitored using a spectrofluorometer. Sodium-dependent proton extrusion in U87 glial cells and in primary astrocytes is mediated by the type 1 sodium proton exchanger (NHE1) (McLean et al., supra; Hegde et al., supra) and was monitored in the presence or absence of compound 3a or 3c.
IC50 drug determinations for NHE1. This method utilizes spectrofluorometric measurements of [H^+]i as described above. The ammonium chloride prepulse method can be used to acidify cells in the presence of HR that is sodium-substituted with NMDG. Perfusion of the acidified cells with HR that contains sodium causes activation of NHE1 that is inhibited in a concentration-dependent fashion as described in McLean et al., supra.

[3] = system: astrocytes; assay type: cell-based; settings: amiloride ≧500 μM, 48-72 hours
Excerpt: Cell culture. The five human glioma cell lines can be obtained from the American Tissue Culture Collection (ATCC). Primary cultures of rat astrocytes can be isolated from the cerebral cortex of neonatal rats (0-1 day old). For measurements of [H^+]i, [Ca^2+]i, and [Na^+]i, cells can be grown on glass coverslips coated with rat tail collagen type I.

[4] = system: U87 glioma cells
[5] = system: U87 cells; assay: Intracellular translocation into U87 cells by fluorescence microscopy; settings: 50 μM; 90 and 180 min; 380 nm excitation, 510 nm emission
Excerpt: Fluorescence Microscopy. […] Excitation light was provided by a xenon arc lamp coupled to the Polychrome IV scanning monochromator (Till Photonics; Grafelfing, Germany) that alternately excites with different wavelengths. Excitation light was delivered by fiber optics to cells through the epifluorescence port of a Nikon E600 microscope coupled to a Nikon Fluor 60× water immersion lens. The detector was an Orca II-ER CCD digital camera (Hamamatsu USA; Bridgewater, N.J.), which is controlled by C-Imaging Simple PCI software (Compix; Cranberry Township, Pa.).
Intracellular emission intensities were collected in regions of interest (ROI) from an average of 4-8 cells/field using Simple PCI imaging software. […] Images were captured as TIFF files (C-imaging Simple PCI software), and light and fluorescent images of the same field were imported in Photoshop 6.0 and vector graphics added using Illustrator 9.0.1 (Adobe; San Jose, Calif.).

[6] = system: NHE1 and NCX; settings: NHE1 and NCX inhibitors from the literature; cited from earlier work
[7] = system: NCX; settings: read-out: IC50 for NCX inhibition; cited from earlier work
[8] = system: intracerebral U87 glioma xenografts; assay: Intracerebral U87 glioma xenografts in athymic rats, amiloride infusion by Alzet pump, tumor volume by NMR and histology; assay type: in vivo, rat; settings: for Doubling time, day postimplant 10: before drug infusion (day 12-17); for Doubling time, day postimplant 12 / Doubling time, day postimplant 15 / Doubling time, day postimplant 17: drug infusion day 12-17
Method: U87 glioma cells were stereotaxically implanted into the corpus striatum of brains of athymic (i.e., T-cell deficient) rats and characterized as an in vivo treatment model. Nissl-stained coronal sections were used to calculate tumor volumes from day 4 to day 28 post-implantation. T1-weighted NMR images were acquired from a separate set of animals to serially measure tumor volumes of intracerebral U87 glioma xenografts.
BrdU was injected intraperitoneally 3 h prior to perfusion fixation with paraformaldehyde in deeply anesthetized animals.

[9] = system: U87 glioma cells; assay: Glioma cell death, manual cell counts with trypan blue exclusion
[10] = target: T2, NHE1 (Rattus norvegicus, UniProt P26431); settings: read-out: IC50 of amiloride (NHE); primary rat astrocytes; cited from earlier work
T2 construct: in primary rat astrocytes (6 μM) (McLean et al., supra); host or cells: primary rat astrocytes
T2 sequence (P26431 whole entry): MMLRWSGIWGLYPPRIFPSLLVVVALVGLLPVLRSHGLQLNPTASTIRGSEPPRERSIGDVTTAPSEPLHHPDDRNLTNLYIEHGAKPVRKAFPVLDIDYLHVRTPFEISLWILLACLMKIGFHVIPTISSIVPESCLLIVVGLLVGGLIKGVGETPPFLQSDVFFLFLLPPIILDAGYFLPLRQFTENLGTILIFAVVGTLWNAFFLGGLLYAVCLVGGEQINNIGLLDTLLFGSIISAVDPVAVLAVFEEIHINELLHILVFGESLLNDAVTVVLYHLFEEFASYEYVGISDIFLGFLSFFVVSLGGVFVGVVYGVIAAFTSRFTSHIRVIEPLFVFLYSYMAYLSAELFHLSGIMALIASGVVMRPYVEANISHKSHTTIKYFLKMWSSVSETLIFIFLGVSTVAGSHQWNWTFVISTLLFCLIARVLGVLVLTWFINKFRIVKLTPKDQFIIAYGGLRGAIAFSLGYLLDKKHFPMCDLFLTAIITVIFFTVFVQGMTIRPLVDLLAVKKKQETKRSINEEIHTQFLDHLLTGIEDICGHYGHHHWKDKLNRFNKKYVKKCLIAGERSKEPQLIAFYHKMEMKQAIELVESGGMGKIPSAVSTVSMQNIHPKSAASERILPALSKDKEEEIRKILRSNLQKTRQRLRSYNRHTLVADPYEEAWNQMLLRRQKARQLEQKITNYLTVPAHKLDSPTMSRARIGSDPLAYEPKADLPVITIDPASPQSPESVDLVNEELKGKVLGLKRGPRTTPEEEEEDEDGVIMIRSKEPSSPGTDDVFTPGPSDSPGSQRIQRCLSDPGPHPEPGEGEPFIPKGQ

[11] = Neuropathological and neurobehavioral effects of intracerebral/intrathecal amiloride infusion in rats
Method: Rats were subjected to a “probe” trial following the last acquisition trial in MWM assessment following tumor and drug administration. The hidden platform was removed and the rat was allowed to swim for 60 seconds. The duration of time spent in the “target” quadrant (formerly containing the platform) was recorded.

[12] = target: T1, NHE1; design: host or cells: CHO cell lines; settings: CHO cell lines, published values; read-out: IC50 of cariporide (NHE); cited from earlier work
[13] = system: U87 glioma cells; settings: Hegde et al. 2004; cited from earlier work
[14] = system: U87; settings: cited from earlier work
[15] = system: T98G; settings: cited from earlier work
[16] = system: U373; settings: cited from earlier work
[17] = system: A172; settings: cited from earlier work
[18] = system: T98G; settings: cited from earlier work; remark: listed apart in the source
[19] = system: U87; settings: cited from earlier work; remark: listed apart in the source
[20] = intracerebral amiloride infusion
[21] = intrathecal infusion, tumor-implanted rats

NC(N)=NC(=O)c1nc(Cl)c(N)nc1N [Amiloride, 3,5-diamino-6-chloro-N-(diaminomethylene)pyrazinecarboxamide]
Glioma Effect: antiproliferative concentration [1]: < 50 µM | Reversal of NHE1 inhibition after removal of compound ([2]; U87 cells): slow and incomplete recovery; also recorded: prolonged and an incomplete recovery | Killing of astrocytes [3]: not astrocytes | Glioma Effect: cytotoxic concentration [4]: ≥ 500 µM | Intracellular accumulation in U87 cells [5]: intracellular accumulation; also recorded: rapid cell permeation | Rel. Activity [6]: NHE > NCX | IC50 [7]: 500 µM | Doubling time, day postimplant 10 ([8]; 10 mM amiloride reservoir): 3.07 | Doubling time, day postimplant 12 ([8]; 10 mM amiloride reservoir): 3.40 | Doubling time, day postimplant 15 ([8]; 10 mM amiloride reservoir): 3.99 | Doubling time, day postimplant 17 ([8]; 10 mM amiloride reservoir): 4.44 | Effect on tumor growth rate ([8]; 10 mM reservoir, 28 pmol/24 h, 0.14 nmol): did not affect | Doubling time, day postimplant 10 ([8]; 100 mM amiloride reservoir): 1.23 | Doubling time, day postimplant 12 ([8]; 100 mM amiloride reservoir): 1.98 | Doubling time, day postimplant 15 ([8]; 100 mM amiloride reservoir): 4.58+ | Doubling time, day postimplant 17 ([8]; 100 mM amiloride reservoir): 11.65++ | Increase of tumor doubling time compared to vehicle-treated animals ([8]; 100 mM reservoir, 276 pmol/24 h for 5 days, 1.4 nmol total): 3 fold | Effect on normal brain cell types (histology) [8, 20]: unaffected | Glioma cell death in poorly vascularized tumor regions (eosin staining) [8, 20]: necrotic glioma cell death | Effect on tumor growth rates ([8]; intracerebral infusion at relatively high doses vs vehicle): significantly slowed | Concentration that killed U87 glioma cells ([9]; U87 glioma cells, C2am-Gly within 24 h): 500 µM | Concentration that killed glioma cells ([9]; glioma cells, amiloride within 48-72 hours): ≥ 500 µM | IC50 [10]: 6 µM | Neuropathological changes in normal brain cell types ([11]; Sprague-Dawley rats, 276 pmol/24 h intracerebral, 12 days): not observed; also recorded: no demonstrable neuropathology | Balance and fine motor coordination (beam walk) [11, 21]: did not affect | Memory in a spatial learning task (probe trial) [11, 21]: did not affect

CC(C)c1ccc(C(=O)NC(=N)N)cc1S(C)(=O)=O [Cariporide]
Relative Potency ([2]; NHE inhibition relative to amiloride = 1): 676 | IC50 ([2]; U87 glial cells, read-out: IC50 of cariporide (NHE inhibition)): 0.074 µM | IC50 [12]: 0.03 µM | Cytotoxicity to glioma cells [4]: cytotoxic | Killing of glioma cells by selective NHE inhibitor [13]: do not kill glioma cells

Cn1nnc2c(C(N)=O)ncn2c1=O [Temozolamide]
Temozolamide sensitivity [14]: yes | Temozolamide sensitivity [15]: no | Temozolamide sensitivity [16]: yes

CN[C@@H]1C[C@H]2O[C@@](C)([C@@H]1OC)n1c3ccccc3c3c4c(c5c6ccccc6n2c5c31)C(=O)NC4 [staurosporine]
G1 arrest with staurosporine [17]: yes | G1 arrest with staurosporine [18]: yes | G1 arrest with staurosporine [19]: yes
